Columns and labels:
[1] = Antiadrenergic activity: shift of isoprenalin dose-activity curves in guinea-pigs (pA2); assay type: in vivo, guinea-pig; conditions: averages from 2 to 3 tests; for pA2 heart rate: against heart rate-increasing activity of isoprenalin; for pA2 inotropia: against inotropic activity of isoprenalin (LV-dP/dtmax)
Experimental: (§1) Cardiotonic effect with antiadrenergic activity
(§2) Guinea-pigs (Dunkin-Hartley-Pirbright, male, 450-600 g) were anaesthetised with hexobarbital-sodium (150 mg/kg i.p.). After the animals had become unconscious, a tracheal cannula was inserted and the animals were pitched (van Meel, J. Pharmacol. Methods 31 (1): 1-11 (1985)). The animals were then immediately artificially respirated using a breathing pump. The left ventricular pressure (LVP) was measured with a Millar PR-249 catheter-tip manometer inserted into the left ventricle through the left carotid artery. This pressure signal was differentiated electronically (LV-dP/dtmax) and used as a parameter for inotropia. The arterial blood pressure was recorded by a cannula in the right carotid artery using a Bell & Howell pressure recorder. The heart rate was also measured. The substances were administered through a cannula in the jugular vein.
(§3) The test substances were administered to three animals cumulatively in four doses (0.1 to 3 mg/kg) and the effects on blood pressure, heart rate and LV-dP/dtmax were measured. Three minutes after the last dose of the test substance, isoprenalin was administered intravenously in increasing doses. In this way, a cumulative dose-activity correlation was obtained for isoprenalin in the presence of the test substance. The parameters measured were the increase in heart rate and the LV-dP/dtmax. These dose-activity curves were compared with standard curves for isoprenalin without the test substances. The shift to the right of the dose-activity curves for isoprenalin brought about by the test substances were determined graphically and corresponding pA2 values for the test substances were calculated. (see Tenakin in "Pharmacologic Analysis of Drug Receptor Interaction", Rawen Press 1987, pages 211-212).
(§4) The Table which follows contains the averages from 2 to 3 tests: […]

[2] = molecular target: T1, β1 adreno receptor (rat hearts) (Rattus norvegicus, UniProt P18090); test: Affinity for β-adreno receptors: inhibition of 3H-CGP 12177 binding, receptor preparations from rat hearts (β1); conditions: 200 pM 3H-CGP 12177
T1 construct: receptor preparations from rat hearts (β1); from tissue; host or cells: rat heart membrane preparation
T1 sequence (P18090 whole entry): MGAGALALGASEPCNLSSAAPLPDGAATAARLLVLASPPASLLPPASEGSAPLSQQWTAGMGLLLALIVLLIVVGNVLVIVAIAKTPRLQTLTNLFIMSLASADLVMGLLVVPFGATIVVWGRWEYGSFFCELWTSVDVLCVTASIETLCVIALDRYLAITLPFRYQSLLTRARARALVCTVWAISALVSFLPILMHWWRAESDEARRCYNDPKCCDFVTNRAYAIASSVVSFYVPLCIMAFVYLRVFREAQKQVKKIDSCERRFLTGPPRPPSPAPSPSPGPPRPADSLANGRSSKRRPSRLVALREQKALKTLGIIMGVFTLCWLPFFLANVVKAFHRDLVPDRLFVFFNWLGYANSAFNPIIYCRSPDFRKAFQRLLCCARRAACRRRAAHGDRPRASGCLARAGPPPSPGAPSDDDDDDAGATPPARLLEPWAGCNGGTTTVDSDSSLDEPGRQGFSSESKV
Experimental: (§5) 1. Affinity for β-adreno recectors
(§6) The inhibitory effect on the binding of ^3 H-CGP 12177 was tested on receptor preparations from rat hearts (β1) and rat lungs (β2). The binding assay was carried out with some modifications according to the method of Dammgen et al. (Drug. Res. 35: 383-390 (1985)). The incubation mixture contained aliquots of the membrane preparation in Tris buffer, increasing concentrations of the potential antagonist as well as 200 pM ^3 H-CGP 12177. The bound and free radioligands were separated after the incubation period by rapid filtration through glass fibre filters. The filter-bound radioactivity was determined in a β counter with a counting yield of about 52%. The non-specific binding was determined in the presence of 10^-5 M propranolol.

[3] = test system: Guinea-pigs (Dunkin-Hartley-Pirbright, male); test: Cardiotonic effect: LV-dP/dtmax and heart rate in anaesthetised guinea-pigs; assay type: in vivo, guinea-pig; conditions: after a dose of 3 mg/kg i.v., averages from 2 to 3 tests; for change in vivo at 3 mg/kg: Cavia porcellus, iv, read-out: Effects on LV-dP/dtmax % increase
Experimental: as §1, §2, §3, §4

[4] = molecular target: T2, β2 adreno receptor (rat lungs) (Rattus norvegicus, UniProt P10608); test: Affinity for β-adreno receptors: inhibition of 3H-CGP 12177 binding, receptor preparations from rat lungs (β2); conditions: 200 pM 3H-CGP 12177
T2 construct: rat lungs (β2); from tissue; host or cells: rat lung membrane preparation
T2 sequence (P10608 whole entry): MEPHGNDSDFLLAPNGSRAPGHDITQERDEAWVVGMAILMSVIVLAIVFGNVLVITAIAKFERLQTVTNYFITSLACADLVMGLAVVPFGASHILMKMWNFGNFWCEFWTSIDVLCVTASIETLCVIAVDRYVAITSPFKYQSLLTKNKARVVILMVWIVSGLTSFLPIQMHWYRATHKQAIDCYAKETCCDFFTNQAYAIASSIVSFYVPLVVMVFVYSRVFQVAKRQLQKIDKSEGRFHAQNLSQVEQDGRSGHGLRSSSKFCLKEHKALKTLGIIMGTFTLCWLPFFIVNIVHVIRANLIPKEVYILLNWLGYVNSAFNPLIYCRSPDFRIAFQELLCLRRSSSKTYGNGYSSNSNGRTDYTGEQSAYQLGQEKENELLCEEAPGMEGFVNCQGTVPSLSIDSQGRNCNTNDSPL
Experimental: as §5, §6

Row | IC50 [2] | IC50 [4] | Compound | pA2 heart rate [1] | pA2 inotropia [1] | change in vivo at 3 mg/kg [3] | Effect on heart rate in beats per minute [3]
1 | 24 nM | 7200 nM | CC(C)OCCOCc1ccc(OCC(O)CNCCOc2ccc(C3=NNC(=O)CC3)cc2)cc1 (centres unmarked) [Substance F, 6-[4-[2-[3-(4-((2-isopropoxyethoxy)methyl)phenoxy)-2-hydroxy-propylamino]ethoxy]phenyl]-4,5-dihydro-3(2H)-pyridazinone] | 6.96 | 7.14 | 37% | -94 beats per minute
2 | 6 nM | 220 nM | Cc1cc(C2=NNC(=O)CC2)ccc1OCCCNCC(O)COc1ccc(CCOCC2CCC2)cc1 (centres unmarked) [Substance P, 6-[4-[3-[3-(4-(2-cyclobutylmethoxy-ethyl)phenoxy)-2-hydroxy-propylamino]propoxy]-3-methyl-phenyl]-4,5-dihydro-3(2H)-pyridazinone] | 6.45 | 5.31 | 69% | -61 beats per minute
3 | 34 nM | 2300 nM | O=C1CCC(c2ccc3c(c2)ncn3CCNCC(O)COc2ccc(CCOCC3CC3)cc2)=NN1 (centres unmarked) [Substance B, 6-[1-[2-[3-(4-(2-cyclopropylmethoxy-ethyl)phenoxy)-2-hydroxy-propylamino]ethyl]benzimidazol-5-yl]-4,5-dihydro-3(2H)-pyridazinone] | 6.95 | 6.83 | 51% | -47 beats per minute
4 | 22 nM | 1000 nM | O=c1ccc(-c2ccc(OCCNCC(O)COc3ccc(CCOCC4CC4)cc3)cc2)n[nH]1 (centres unmarked) [Substance D, 6-[4-[2-[3-(4-(2-cyclopropylmethoxyethyl)phenoxy)-2-hydroxy-propylamino]ethoxy]phenyl]-3(2H)-pyridazinone] | 7.24 | 6.67 | 51% | -49 beats per minute
5 | 59 nM | 66 nM | Cc1cc(C2=NNC(=O)CC2)ccc1OCCCNCC(O)COc1ccc(CCOCC2CC2)cc1 (centres unmarked) [Substance O, 6-[4-[3-[3-(4-(2-cyclopropylmethoxy-ethyl)phenoxy)-2-hydroxy-propylamino]propoxy]-3-methyl-phenyl]-4,5-dihydro-3(2H)-pyridazinone] | 7.70 | 6.44 | 38% | -116 beats per minute
6 | 29 nM | 1200 nM | O=C1CCC(c2ccc(OCCNCC(O)COc3ccc(CCOCC4CC4)cc3)cc2)=NN1 (centres unmarked) [Substance C, 6-[4-[2-[3-(4-(2-cyclopropylmethoxy-ethyl)phenoxy)-2-hydroxy-propylamino]ethoxy]phenyl]-4,5-dihydro-3(2H)-pyridazinone] | 7.22 | 6.76 | 25% | -51 beats per minute
7 | 10 nM | 19 nM | CC(C)COCCc1ccc(OCC(O)CNCCCn2cnc3cc(C4=NNC(=O)CC4)ccc32)cc1 (centres unmarked) [Substance H] | > 9.0 | 8.28 | 10% | -90 beats per minute
8 | 15 nM | 1100 nM | O=C1CCC(c2ccc(OCCNCC(O)COc3ccc(CCOCC4CCC4)cc3)cc2)=NN1 (centres unmarked) [Substance E, 6-[4-[2-[3-(4-(2-cyclobutylmethoxy-ethyl)phenoxy)-2-hydroxy-propylamino]ethoxy]phenyl]-4,5-dihydro-3(2H)-pyridazinone] | 7.23 | 6.19 | 49% | -71 beats per minute
9 | 26 nM | 940 nM | O=C1CCC(c2ccc3c(c2)ncn3CCNCC(O)COc2ccc(CCOCC3CCC3)cc2)=NN1 (centres unmarked) [Substance A, 6-[1-[2-[3-(4-(2-cyclobutylmethoxy-ethyl)phenoxy)-2-hydroxy-propylamino]ethyl]benzimidazol-5-yl]-4,5-dihydro-3(2H)-pyridazinone] | 8.20 | 6.30 | 50% | -23 beats per minute
10 | 2.6 nM | 520 nM | Cc1cc(C2=NNC(=O)CC2)ccc1OCCNCC(O)COc1ccc(COCCOC(C)C)cc1 (centres unmarked) [Substance N, 6-[4-[2-[3-(4-(2-isopropoxyethoxy-methyl)phenoxy)-2-hydroxy-propylamino]ethoxy]-3-methyl-phenyl]-4,5-dihydro-3(2H)-pyridazinone] | 8.34 | 7.34 | 34% | -94 beats per minute
11 | 53 nM | 4400 nM | CC(C)OCCOCc1ccc(OCC(O)CNCCOc2ccc(-c3ccc(=O)[nH]n3)cc2)cc1 (centres unmarked) [Substance G, 6-[4-[2-[3-(4-(2-isopropoxyethoxymethyl)phenoxy)-2-hydroxypropylamino]ethoxy]phenyl]-3(2H)-pyridazinone] | 6.38 | 6.32 | 38% | -36 beats per minute
12 | 10 nM | 350 nM | CC(C)OCCOCc1ccc(OCC(O)CNCCCOc2ccc(C3=NNC(=O)CC3)cc2Cl)cc1 (centres unmarked) [Substance K, 6-[4-[3-[3-(4-(2-isopropoxyethoxy-methyl)phenoxy)-2-hydroxy-propylamino]propoxy]-3-chloro-phenyl]-4,5-dihydro-3(2H)-pyridazinone] | 7.52 | 6.56 | 11% | -121 beats per minute
13 | 2 nM | 210 nM | Cc1cc(-c2ccc(=O)[nH]n2)ccc1OCCNCC(O)COc1ccc(COCCOC(C)C)cc1 (centres unmarked) [Substance Q, 6-[4-[2-[3-(4-(2-isopropoxyethoxy-methyl)phenoxy)-2-hydroxy-propylamino]ethoxy]-3-methyl-phenyl]-3(2H)-pyridazinone] | – | – | – | –
14 | 0.5 nM | 100 nM | Cc1cc(C2=NNC(=O)CC2)ccc1OCCNCC(O)COc1ccc(CCOCC2CC2)cc1 (centres unmarked) [Substance M, 6-[4-[2-[3-(4-(2-cyclopropylmethoxy-ethyl)phenoxy)-2-hydroxy-propylamino]ethoxy]-3-methyl-phenyl]-4,5-dihydro-3(2H)-pyridazinone] | 8.20 | 7.05 | 51% | -64 beats per minute
15 | 7.6 nM | 600 nM | CC(C)OCCOCc1ccc(OCC(O)CNCCOc2ccc(C3=NNC(=O)CC3)cc2Cl)cc1 (centres unmarked) [Substance L, 6-[4-[2-[3-(4-(2-isopropoxyethoxy-methyl)phenoxy)-2-hydroxy-propylamino]ethoxy]-3-chloro-phenyl]-4,5-dihydro-3(2H)-pyridazinone] | 6.77 | 6.23 | 66% | -51 beats per minute

Row | Compound | IC50 [2] | IC50 [4] | pA2 heart rate [1] | pA2 inotropia [1] | change in vivo at 3 mg/kg [3] | Effect on heart rate in beats per minute [3]
16 | CC(C)COCCc1ccc(OCC(O)CNC(C)(C)Cn2cnc3cc(C4=NNC(=O)CC4)ccc32)cc1 (centres unmarked) [Substance I, 6-[1-[2-[3-(4-(2-isobutoxyethyl)phenoxy)-2-hydroxypropylamino]-2,2-dimethyl-ethyl]benzimidazol-5-yl]-4,5-dihydro-3(2H)-pyridazinone] | 12 nM | 65 nM | 7.89 | 7.17 | 58% | -59 beats per minute

From patent US5135932A, “2-hydroxypropylamino-alkyl-benzimidazoly-5-yl derivatives and their use in the treatment of heart disease” (Dr. Karl Thomae GmbH, priority 1989, dated 1992)
